The target of this assay is LSD-1 enzyme (LSD1/KDM1A) (Homo sapiens (Human), UniProt O60341). The assay can be described thus: biochemical.

Method: LANCE LSD1/KDM1A demethylase assay—10 μL of 1 nM LSD-1 enzyme (ENZO BML-SE544-0050) in the assay buffer (50 mM Tris, pH 7.5, 0.01% Tween-20, 25 mM NaCl, 5 mM DTT) were preincubated for 1 hour at 25° C. with 0.8 μL compound/DMSO dotted in black 384 well polystyrene plates. […] After stopping the reactions plates were incubated for 30 minutes and read on a PHERAstar FS plate reader (BMG Labtech).

As a reminder, the IC50 is the midpoint of a concentration-inhibition curve. Read a low IC50 as higher potency. `Cc1ccc(-c2c(-c3ccc(C#N)cc3)cc(OC[C@@H]3CCNC3)c3ncnn23)cc1` [Example 1, 4-{5-(4-methylphenyl)-8-[(3R)-pyrrolidin-3-ylmethoxy][1,2,4]triazolo[1,5-a]pyridin-6-yl}benzonitrile] displayed an IC50 below 50 nM.

Compound `CN[C@H]1CCN(Cc2cc(-c3ccc(C#N)cc3)c(-c3ccc(C)cc3)n3ncnc23)C1` [Example 10, 4-[8-{[(3S)-3-(methylamino)pyrrolidin-1-yl]methyl}-5-(4-methylphenyl)[1,2,4]triazolo[1,5-a]pyridin-6-yl]benzonitrile] had an IC50 below 50 nM. `CN[C@@H]1CCN(Cc2cc(-c3ccc(C#N)cc3)c(-c3ccc(C)cc3)n3ncnc23)C1` [Example 11, 4-[8-{[(3R)-3-(methylamino)pyrrolidin-1-yl]methyl}-5-(4-methylphenyl)[1,2,4]triazolo[1,5-a]pyridin-6-yl]benzonitrile] had an IC50 below 50 nM. Regarding `Cc1ccc(-c2c(-c3ccc(C#N)cc3)cc(CCC3CCNC3)c3ncnn23)cc1` (centres unmarked) [Example 2, 4-[5-(4-methylphenyl)-8-(2-pyrrolidin-3-ylethyl)[1,2,4]triazolo[1,5-a]pyridin-6-yl]benzonitrile], the IC50 is below 50 nM. Consider `Cc1ccc(-c2c(-c3ccc(C#N)cc3)nc(OC[C@@H]3CCNC3)c3ncnn23)cc1` [Example 12, 4-{5-(4-methylphenyl)-8-[(3R)-pyrrolidin-3-ylmethoxy][1,2,4]triazolo[1,5-a]pyrazin-6-yl}benzonitrile], for which the IC50 is below 50 nM.

(Values after patent US9695167B2, “Substituted triazolo[1,5-a]pyridines and triazolo[1,5-a]pyrazines as LSD1 inhibitors” (Incyte Corporation, priority 2014, dated 2017).)
